Where a name gives a salt, the structure may show the parent alone. Read-outs that look alike come from different tables or passages of the source.
Assays:
Lysosomal α-fucosidase = molecular target: T1, Lysosomal α-fucosidase (Homo sapiens, UniProt P04066); test: Human liver glycosidase assay, lysosomal α-fucosidase; type: biochemical; details: read-out: Inhibition (%) at 1 mM, lysosomal α-fucosidase
T1 construct: human liver extracts; from tissue; host or cells: human liver extracts
T1 sequence (P04066 32-466): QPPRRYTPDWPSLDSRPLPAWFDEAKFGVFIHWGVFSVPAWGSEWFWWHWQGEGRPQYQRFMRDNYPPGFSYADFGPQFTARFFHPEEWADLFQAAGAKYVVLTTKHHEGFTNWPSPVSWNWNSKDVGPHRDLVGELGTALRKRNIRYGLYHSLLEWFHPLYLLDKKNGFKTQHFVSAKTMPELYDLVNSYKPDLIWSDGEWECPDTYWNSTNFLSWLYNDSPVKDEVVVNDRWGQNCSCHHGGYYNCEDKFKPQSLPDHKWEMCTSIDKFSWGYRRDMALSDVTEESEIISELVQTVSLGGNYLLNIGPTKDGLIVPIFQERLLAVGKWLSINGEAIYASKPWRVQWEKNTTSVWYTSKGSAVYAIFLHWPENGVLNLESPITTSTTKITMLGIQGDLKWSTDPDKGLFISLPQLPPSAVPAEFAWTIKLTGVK
Procedure: (§1) Melting points were recorded on a Kofler hot block. Proton nuclear magnetic resonance (δH) spectra were recorded on Varian Gemini 200 (at 200 MHz), Bruker WH 300 (300 MHz), or Bruker AM 500 (500 MHz) spectrometers. Carbon nuclear magnetic resonance (δC) spectra were recorded on a Varian Gemini 200 (50 MHz) or a Bruker 250 (62.9 MHz) spectrometer. Multiplicities were assigned using DEPT sequence on the Gemini and by off resonance decoupling on the Bruker. Spectra run in D2 O were referenced to methanol as an internal standard. All chemical shifts are quoted on the δ-scale. Infrared spectra were recorded on a Perkin-Elmer 297, or on a Perkin-Elmer 781 spectrophotometer. Mass spectra were recorded on VG Micromass 30F, ZAB lF, Masslab 20-250 or Trio-1 GCMS (DB-5 column) spectrometers using desorption chemical ionization (NH3 DCI), electron impact (EI), chemical ionization (NH3 CI) and fast atom bombardment (FAB) techniques, as stated. […] Concentrations were given in g/100 ml. Hydrogenations were run under an atmosphere of hydrogen gas maintained by inflated balloon. Microanalyses were performed by the microanalysis service of the DysonPerrins laboratory, Oxford UK. Thin layer chromatography (t.l.c.) was carried out on aluminum sheets coated with 60F254 silica. Plates were developed using either 5% v/v concentrated sulphuric acid in methanol, 0.2% w/v cerium (IV) sulphate and 5% ammonium molybdate in 2M sulphuric acid and 0.5% ninhydrin in methanol. Flash chromatography was carried out using Sorbsil C60 40/60 silica. Ion-exchange chromatography was performed using Dowex 50W-X8 (H) and Sigma CG 400 (Cl) resins. The resins were washed with 2M hydrochloric acid and 2M sodium hydroxide solution, respectively, and subsequently with distilled water, prior to use. Solvents and commercially available reagents were dried and purified before use according to standard procedures; dichloromethane was refluxed over and distilled from calcium hydride, N,N-dimethylformamide was distilled under reduced pressure from calcium hydride, methanol was distilled from magnesium methoxide, pyridine was distilled from, and stored over, potassium hydroxide and tetrahydrofuran was distilled from a purple solution of sodium benzophenone ketyl immediately before use. Hexane was distilled at 68° C. before use to remove involatile fractions. 2,3-O-Isopropylidene-L-gulono-1,4-lactone (9) [H. Ogura et al., J. Oro. Chem. 37, 72 (1972); G. W. J. Fleet Tetrahedron 45, 319 (1989)]and 2,3-O-isopropylidene-D-gulono-1,4-lactone (15) [L. M. Lerner et al., J. Org. Chem. 33, 1780 (1968)]were prepared from D- and L-Chem. gulonolactones [purchased from the Sigma Chemical Company] as reported previously. See, e.g., Fleet, U.S. Pat. No. 4,861,892. Human liver glycosidases were assayed in the absence and presence [1 mM] of each of the compounds using the appropriate buffered 4-methylumbellifeeryl-glycosides as substrates, as described previously. [B. Winchest et al., Biochem. J. 265, 277 (1990)]. Naringinase was assayed using pnitrophenyl α-L-rhamnoside (1.75 mM) as substrates, according to Romero [C. Romero et al., Anal. Biochem. 149, 566 (1985)].
(§2) The enzymes included human liver glycosidases and naringinase. The latter enzyme is a readily available endo-L-rhamnosidase described by Romero et al., Anal. Biochem. 149, 566 (1985).

α-arabinosidase = test: Human liver glycosidase assay, α-arabinosidase; type: biochemical; details: 1 mM compound
Procedure: (§3) Melting points were recorded on a Kofler hot block. Proton nuclear magnetic resonance (δH) spectra were recorded on Varian Gemini 200 (at 200 MHz), Bruker WH 300 (300 MHz), or Bruker AM 500 (500 MHz) spectrometers. Carbon nuclear magnetic resonance (δC) spectra were recorded on a Varian Gemini 200 (50 MHz) or a Bruker 250 (62.9 MHz) spectrometer. Multiplicities were assigned using DEPT sequence on the Gemini and by off resonance decoupling on the Bruker. Spectra run in D2 O were referenced to methanol as an internal standard. All chemical shifts are quoted on the δ-scale. Infrared spectra were recorded on a Perkin-Elmer 297, or on a Perkin-Elmer 781 spectrophotometer. Mass spectra were recorded on VG Micromass 30F, ZAB lF, Masslab 20-250 or Trio-1 GCMS (DB-5 column) spectrometers using desorption chemical ionization (NH3 DCI), electron impact (EI), chemical ionization (NH3 CI) and fast atom bombardment (FAB) techniques, as stated. […] Concentrations were given in g/100 ml. Hydrogenations were run under an atmosphere of hydrogen gas maintained by inflated balloon. Microanalyses were performed by the microanalysis service of the DysonPerrins laboratory, Oxford UK. […]
as §2

human liver mannosidases = details: literature; cited from earlier work
Lysosomal α-mannosidase = molecular target: T2, Lysosomal α-mannosidase (Homo sapiens, UniProt O00754); test: Human liver glycosidase assay, lysosomal α-mannosidase; type: biochemical; set-up: human liver extracts; from tissue; host or cells: human liver extracts; details: for inhibition at 1000 µM: 1 mM compound, 4-methylumbelliferyl-glycoside substrate
T2 sequence (O00754 50-1011): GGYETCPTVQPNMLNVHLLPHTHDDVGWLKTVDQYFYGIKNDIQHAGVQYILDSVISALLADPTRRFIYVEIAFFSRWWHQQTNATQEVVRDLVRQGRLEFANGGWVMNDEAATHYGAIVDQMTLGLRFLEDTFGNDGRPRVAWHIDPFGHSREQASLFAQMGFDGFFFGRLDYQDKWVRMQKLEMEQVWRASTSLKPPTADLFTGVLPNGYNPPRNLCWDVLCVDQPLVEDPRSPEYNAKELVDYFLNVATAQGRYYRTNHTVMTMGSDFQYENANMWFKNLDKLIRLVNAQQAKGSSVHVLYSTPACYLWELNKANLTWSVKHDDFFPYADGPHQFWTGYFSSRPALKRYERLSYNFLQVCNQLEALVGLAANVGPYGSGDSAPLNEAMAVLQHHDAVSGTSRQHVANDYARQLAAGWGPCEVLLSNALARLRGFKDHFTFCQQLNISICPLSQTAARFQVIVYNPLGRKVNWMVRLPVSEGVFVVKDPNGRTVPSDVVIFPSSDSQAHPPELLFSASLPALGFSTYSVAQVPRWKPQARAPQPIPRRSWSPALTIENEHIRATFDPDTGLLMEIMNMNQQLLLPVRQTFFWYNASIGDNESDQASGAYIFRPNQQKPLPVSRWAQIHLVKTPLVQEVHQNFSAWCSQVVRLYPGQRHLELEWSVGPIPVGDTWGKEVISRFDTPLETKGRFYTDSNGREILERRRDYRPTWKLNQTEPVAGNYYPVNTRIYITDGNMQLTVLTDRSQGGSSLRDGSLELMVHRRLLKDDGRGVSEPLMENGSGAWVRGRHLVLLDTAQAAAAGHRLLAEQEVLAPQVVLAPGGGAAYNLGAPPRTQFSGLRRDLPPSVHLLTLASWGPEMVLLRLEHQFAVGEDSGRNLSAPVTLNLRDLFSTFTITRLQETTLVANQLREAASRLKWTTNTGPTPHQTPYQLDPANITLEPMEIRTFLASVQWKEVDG
Procedure: as §1, §2

[1] = tested on: N-acetyl-β-D-hexosaminidase; test: Human liver glycosidase assay, N-acetyl-β-D-hexosaminidase; type: biochemical; details: 1 mM compound
Procedure: as §3, §2

[2] = tested on: glycoprotein processing mannosidase I; details: literature; cited from earlier work
bovine α-L-fucosidase = molecular target: T3, bovine α-L-fucosidase (Bos taurus, UniProt Q2KIM0); details: literature; cited from earlier work
T3 sequence (Q2KIM0 23-468): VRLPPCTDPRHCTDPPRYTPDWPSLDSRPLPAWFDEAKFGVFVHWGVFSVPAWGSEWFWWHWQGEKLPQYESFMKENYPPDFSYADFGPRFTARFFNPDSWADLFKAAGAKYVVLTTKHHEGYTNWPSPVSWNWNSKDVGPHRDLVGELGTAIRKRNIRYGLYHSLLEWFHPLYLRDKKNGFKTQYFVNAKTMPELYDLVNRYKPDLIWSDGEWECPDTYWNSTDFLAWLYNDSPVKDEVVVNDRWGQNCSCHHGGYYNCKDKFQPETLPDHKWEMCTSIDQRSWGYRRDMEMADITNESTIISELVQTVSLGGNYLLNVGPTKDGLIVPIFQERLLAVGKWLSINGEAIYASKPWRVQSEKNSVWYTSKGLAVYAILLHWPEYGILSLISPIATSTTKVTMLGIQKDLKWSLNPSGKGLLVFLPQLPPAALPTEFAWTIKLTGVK

[3] = tested on: α-rhamnosidase (naringinase); test: Naringinase assay with p-nitrophenyl α-L-rhamnoside; type: biochemical; details: 1 mM compound; p-nitrophenyl α-L-rhamnoside 1.75 mM
Procedure: as §1, §2

mannosidases = details: literature; cited from earlier work
β-mannosidase = molecular target: T4, β-mannosidase (Homo sapiens, UniProt O00462); details: literature; cited from earlier work
T4 sequence (O00462 18-879): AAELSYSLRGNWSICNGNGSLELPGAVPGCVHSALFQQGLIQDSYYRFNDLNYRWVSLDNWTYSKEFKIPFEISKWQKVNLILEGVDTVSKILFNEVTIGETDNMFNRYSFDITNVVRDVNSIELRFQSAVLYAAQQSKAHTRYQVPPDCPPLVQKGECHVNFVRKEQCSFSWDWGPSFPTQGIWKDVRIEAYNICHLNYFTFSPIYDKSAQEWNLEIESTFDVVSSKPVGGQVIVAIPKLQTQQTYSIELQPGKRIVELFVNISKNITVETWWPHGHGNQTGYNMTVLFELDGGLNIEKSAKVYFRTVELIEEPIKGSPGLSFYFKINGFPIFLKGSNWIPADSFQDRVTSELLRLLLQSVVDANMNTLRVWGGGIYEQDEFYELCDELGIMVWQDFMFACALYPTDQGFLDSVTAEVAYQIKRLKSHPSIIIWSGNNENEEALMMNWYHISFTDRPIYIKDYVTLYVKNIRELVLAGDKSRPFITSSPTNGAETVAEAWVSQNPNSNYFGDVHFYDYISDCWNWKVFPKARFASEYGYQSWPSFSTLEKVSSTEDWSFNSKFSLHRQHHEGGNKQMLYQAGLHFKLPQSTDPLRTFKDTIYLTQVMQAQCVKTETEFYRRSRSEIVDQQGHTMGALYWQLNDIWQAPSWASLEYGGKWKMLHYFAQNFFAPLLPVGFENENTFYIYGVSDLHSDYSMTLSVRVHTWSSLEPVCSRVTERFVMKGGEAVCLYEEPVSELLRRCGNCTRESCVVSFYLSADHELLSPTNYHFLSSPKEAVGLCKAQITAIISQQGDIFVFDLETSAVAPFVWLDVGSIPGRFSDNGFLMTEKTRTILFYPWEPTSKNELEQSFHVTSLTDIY

[4] = human liver, read-out: Ki, lysosomal α-mannosidase

| SMILES | inhibition at 1000 µM (Lysosomal α-fucosidase; 1 mM compound, human liver) [%] | Inhibition (%) at 1 mM, α-arabinosidase (α-arabinosidase) [%] | inhibition at 1000 µM (Lysosomal α-mannosidase; human liver) [%] | Ki (Lysosomal α-mannosidase; [4]) [µM] | Inhibition of glycoprotein processing mannosidase (in words) [2] | Inhibition (%) at 1 mM, α-rhamnosidase (naringinase) [3] [%] | further results |
| --- | --- | --- | --- | --- | --- | --- | --- |
| C[C@@H](O)[C@H]1NC[C@@H](O)[C@H]1O [1,4-dideoxy-1,4-imino-6-deoxy-mannitol] | 21 | 91 | 100 | 1.3 |  |  | Inhibition of human liver mannosidases (in words) (human liver mannosidases): excellent inhibitor |
| OC[C@H]1NC[C@@H](O)[C@@H](O)[C@@H]1O [DMJ (1), deoxymannojirimycin] |  |  |  |  | potent inhibitor |  | inhibition at 1000 µM (Lysosomal α-fucosidase): 92%; Inhibition (%) at 1 mM, N-acetyl-β-D-hexosaminidase [1]: 54%; Inhibition of bovine α-L-fucosidase (in words) (bovine α-L-fucosidase): potent inhibitor; Ki (Lysosomal α-mannosidase): 750 µM |
| C[C@H]1NC[C@@H](O)[C@@H](O)[C@@H]1O [D-Rhamnojirimycin (5), 1,5-amino-1,5,6-trideoxy-D-mannitol hydrochloride] |  |  | 55 |  |  | 10 | IC50 (Lysosomal α-mannosidase; human liver, read-out: I50, lysosomal α-mannosidase): 1000 µM |
| OC[C@@H](O)[C@H]1NC[C@@H](O)[C@H]1O [1,4-dideoxy-1,4-iminomannitol (3), 1,4-dideoxy-1,4-iminomannitol] | 24 | 66 | 89 | 13 | strong |  | Inhibition of many mannosidases (in words) (mannosidases): strong |
| O[C@H]1[C@H]2[C@H](O)CCCN2C[C@H]1O [swainsonine] |  |  |  |  |  |  | Inhibition of β-mannosidase (in words) (β-mannosidase): fail to inhibit |
| C[C@@H]1NC[C@H](O)[C@H](O)[C@H]1O [L-Rhamnojirimycin (7), 1,5-Imino-1,5,6-trieoxy-L-mannitoI hydrochIoride] |  |  | 19 |  |  | 0 |  |
